Data from US11518763B2 (SCOHIA PHARMA, INC., priority 2018, dated 2022).
Read-outs that look alike come from different tables or passages of the source.

Legend:
[1] = amide bond, HATU, DMF, 25.0 °C, 4.0 h
[2] = biological target: T1, binding between NRF2 and KEAP1 (biotinylated human KEAP1 protein (Kelch domain), TAMRA-labeled NRF2 peptide) (Homo sapiens, UniProt Q14145); assay: Measurement of activity of inhibiting NRF2 binding (NRF2-KEAP1 TR-FRET); conditions: inhibition rate relative to control at 100 nM test compound; TR-FRET; 60 min at room temperature; read-out: NRF2 binding inhibitory activity (at 100 nM)
T1 construct: biotinylated human KEAP1 protein (Kelch domain); biotin (biotinylated)
T1 sequence (Q14145 321-609 limits assumed): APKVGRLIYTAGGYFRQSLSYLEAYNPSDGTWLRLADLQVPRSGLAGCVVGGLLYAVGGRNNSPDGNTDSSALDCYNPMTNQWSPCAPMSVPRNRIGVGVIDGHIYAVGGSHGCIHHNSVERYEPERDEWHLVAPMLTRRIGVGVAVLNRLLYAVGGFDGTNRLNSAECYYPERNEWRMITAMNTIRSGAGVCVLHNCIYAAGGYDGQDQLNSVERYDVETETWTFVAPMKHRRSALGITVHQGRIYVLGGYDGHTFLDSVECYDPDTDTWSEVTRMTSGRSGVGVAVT

**Q.** Which ring closure, yield of all isomers ([1]; from COC(=O)C(C)(C)C(c1ccc2c(c1)CNCC2)c1ccc2c(nnn2CCCOCc2cc(C)c(C(=O)O)c(C)c2)c1C, 30.4 mM) does the source give for `COC(=O)C(C)(C)C1c2ccc3c(c2)CN(CC3)C(=O)c2c(C)cc(cc2C)COCCCn2nnc3c(C)c1ccc32` (stereo not shown) here?
**A.** Its ring closure, yield of all isomers is 29.6%.

**Q.** With `COC(=O)C(C)(C)C1c2ccc3c(c2)CN(CC3)C(=O)c2ccc(cc2)COCCCn2nnc3c(C)c1ccc32` (stereo not shown) as the molecule, how does the ring closure, yield of all isomers ([1]; from COC(=O)C(C)(C)C(c1ccc2c(c1)CNCC2)c1ccc2c(nnn2CCCOCc2ccc(C(=O)O)cc2)c1C, 18.6 mM) read?
**A.** Its ring closure, yield of all isomers is 20.7%.

**Q.** Which ring closure, yield of all isomers ([1]; from CCOC(=O)CC(c1ccc2c(c1)CN(C(=O)OC(C)(C)C)CC2)c1ccc2c(nnn2CCCCCc2ccc(C(=O)OC(C)(C)C)cc2)c1C, 51.2 mM, 2 steps) does the source give for `CCOC(=O)CC1c2ccc3c(c2)CN(CC3)C(=O)c2ccc(cc2)CCCCCn2nnc3c(C)c1ccc32` (stereo not shown) [Example 37, Ethyl [32-methyl-20-oxo-8,9,10,21-tetraazahexacyclo[19.5.3.2^16,19.1^3,7.0^6,10.0^24,28]dotriaconta-1(26),3(32),4,6,8,16,18,24,27,30-decaen-2-yl]acetate] here?
**A.** The ring closure, yield of all isomers was 52.4%.

**Q.** What about the inhibition at 0.1 µM [2] of the same molecule?
**A.** Its inhibition at 0.1 µM is 29%.
